This passage reports Emax and EC50 results from US12180192B2, “Modulators of THR-β and methods of use thereof” (ALIGOS THERAPEUTICS, INC., priority 2019, dated 2024).

Usually Emax stands for the greatest response seen or fitted, relative to the assay's reference. The term EC50 denotes the concentration at which the effect is half-maximal.

One assay concerns the target T1, THR beta (Homo sapiens, UniProt P10828).
T1 construct: expressed in transfected cells; host or cells: HEK293T (ATCC CRL-3216)
T1 sequence (P10828 1-461): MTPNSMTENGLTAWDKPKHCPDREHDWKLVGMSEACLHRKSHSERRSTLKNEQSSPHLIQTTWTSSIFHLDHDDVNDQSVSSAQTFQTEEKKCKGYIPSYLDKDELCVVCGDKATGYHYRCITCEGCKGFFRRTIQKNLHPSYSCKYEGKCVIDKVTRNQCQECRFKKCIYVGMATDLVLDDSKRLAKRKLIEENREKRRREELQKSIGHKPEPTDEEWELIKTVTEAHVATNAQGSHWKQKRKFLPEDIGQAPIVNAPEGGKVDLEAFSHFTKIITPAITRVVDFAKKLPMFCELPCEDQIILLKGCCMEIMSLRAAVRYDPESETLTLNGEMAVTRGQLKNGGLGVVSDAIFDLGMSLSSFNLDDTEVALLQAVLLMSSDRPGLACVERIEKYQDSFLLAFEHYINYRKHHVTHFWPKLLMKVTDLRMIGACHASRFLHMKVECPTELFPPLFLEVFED
T1 sequence (P19793 1-462 partner): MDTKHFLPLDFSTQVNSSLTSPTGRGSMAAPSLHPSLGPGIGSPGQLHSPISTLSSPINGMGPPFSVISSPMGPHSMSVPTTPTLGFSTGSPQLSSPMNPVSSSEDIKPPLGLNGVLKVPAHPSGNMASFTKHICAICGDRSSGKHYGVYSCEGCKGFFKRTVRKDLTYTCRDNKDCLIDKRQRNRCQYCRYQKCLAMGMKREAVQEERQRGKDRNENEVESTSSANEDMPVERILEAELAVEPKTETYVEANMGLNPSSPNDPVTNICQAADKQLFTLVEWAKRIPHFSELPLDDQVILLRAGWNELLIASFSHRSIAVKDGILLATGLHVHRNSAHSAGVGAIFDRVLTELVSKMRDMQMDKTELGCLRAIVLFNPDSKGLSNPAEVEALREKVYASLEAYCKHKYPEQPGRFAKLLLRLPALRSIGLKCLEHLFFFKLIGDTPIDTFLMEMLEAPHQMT
Briefly: HEK293T THR beta/RXR luciferase reporter assay (Assay 2). The format is cell-based. Particulars: for Emax: HEK-293T, Table 5, Assay 2, THRβ, read-out: Activity category Assay 2 THRβ (Emax); for EC50: THR-beta, HEK293T reporter assay, read-out: Activity category Assay 2 (EC50, THR-beta agonist). On the procedure:
(§1) HEK293T Reporter THRalpha/Beta/RXR Reporter Assay (Assay 2)
(§2) The purpose of this assay is to evaluate the effect of compounds on the thyroid hormone nuclear receptor pathway in HEK293T cells. To this end, HEK293T cells are transiently transfected with a luciferase reporter under the control of the thyroid response element (TRE), an RXR expression plasmid and either a THR alpha or THR beta expression plasmid. Transfected cells are stimulated with test compounds for 18-24 hours before activation of the thyroid hormone pathway is measured via a luciferase read-out.
(§3) Procedure. […] Ten five-fold dilutions of test compounds are prepared in DMSO and 30 nL are dispensed to the cells. […] Approximately 18-24 h after compound addition, 384 well plates are allowed to adjust to rt, 30 μL One-Glo (Promega catalog #E6120) is added to each well and luminescence is measured on a Perkin Elmer Enspire plate reader. Percent agonism is calculated using the following equation: 100× (sample-negative control)/(positive control-negative control).
On the technique in general: In a reporter assay the amount or activity of a reporter protein is the signal.

The target of assay [1] is T2, human thyroid receptor alpha ligand-binding domain (LBD) (Homo sapiens, UniProt P10827).
T2 construct: purchased Invitrogen
In words: TR-FRET thyroid receptor alpha coactivator assay (THR biochemical assay, Assay 1). The settings on record: for EC50: Table 4, THR-alpha, read-out: Activity category Assay 1 (EC50, THR-alpha agonist activity); for Emax: Table 5, THRα, read-out: Activity category Assay 1 THRα (Emax). In short, it runs like this: (§4)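 Agonist-driven coactivator recruitment measured by TR-FRET: terbium anti-GST antibody (2 nM) bound to GST-LBD of TRβ or TRα (1 nM final, stated for β), with fluorescein SRC2-2 peptide at 200 nM. Compounds at 1% DMSO. Read after 1 h, room temperature, protected from light.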
Background: In TR-FRET formats the signal depends on donor and acceptor labels being close together.

For another assay, the target named is T3, THR alpha (Homo sapiens, UniProt P10827).
T3 construct: expressed in transfected cells; host or cells: HEK293T (ATCC CRL-3216)
T3 sequence (P10827 1-410 isoform P10827-2): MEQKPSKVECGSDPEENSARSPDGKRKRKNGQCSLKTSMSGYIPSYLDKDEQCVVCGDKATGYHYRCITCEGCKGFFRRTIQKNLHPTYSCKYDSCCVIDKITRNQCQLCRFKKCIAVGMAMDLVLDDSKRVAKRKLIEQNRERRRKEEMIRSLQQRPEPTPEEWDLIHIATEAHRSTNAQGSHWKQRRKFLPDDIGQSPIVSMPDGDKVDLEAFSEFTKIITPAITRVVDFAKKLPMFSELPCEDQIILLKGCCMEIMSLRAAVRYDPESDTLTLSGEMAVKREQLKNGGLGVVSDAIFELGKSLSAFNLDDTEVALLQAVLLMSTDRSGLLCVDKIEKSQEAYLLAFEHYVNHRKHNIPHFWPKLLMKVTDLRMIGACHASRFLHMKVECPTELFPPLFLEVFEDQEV
T3 sequence (P19793 1-462 partner): T1 sequence (P19793 1-462 partner)
In words: HEK293T THR alpha/RXR luciferase reporter assay (Assay 2). The settings on record: Assay 2; for Emax: HEK-293T, Table 5, THRα, read-out: Activity category Assay 2 THRα (Emax); for EC50: Table 4, THR-alpha, read-out: Activity category Assay 2 (EC50, THR-alpha agonist activity). The format is cell-based. On the procedure: as §1, §2, §3

The target in assay [2] is T4, human thyroid receptor beta ligand-binding domain (LBD) (Homo sapiens, UniProt P10828).
T4 construct: purchased Invitrogen
T4 sequence (P10828 217-461 limits assumed): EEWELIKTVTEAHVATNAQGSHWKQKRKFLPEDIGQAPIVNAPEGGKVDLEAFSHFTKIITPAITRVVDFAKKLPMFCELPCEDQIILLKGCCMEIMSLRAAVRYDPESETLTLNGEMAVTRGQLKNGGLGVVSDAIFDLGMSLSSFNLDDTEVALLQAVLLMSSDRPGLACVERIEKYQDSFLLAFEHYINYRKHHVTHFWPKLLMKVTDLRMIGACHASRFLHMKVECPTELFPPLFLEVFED
In words: TR-FRET thyroid receptor beta coactivator assay (THR biochemical assay, Assay 1). Particulars: for EC50: THR-beta, TR-FRET coactivator assay, read-out: Activity category Assay 1 (EC50, THR-beta agonist); for Emax: Table 5, Assay 1, THRβ, read-out: Activity category Assay 1 THRβ (Emax). In short, it runs like this: as §4

SMILES strings stand for the structures.

For the molecule `CC(C)c1cc(Oc2c(Cl)cc(-c3nn(C(F)F)c(=O)[nH]c3=O)cc2Cl)n[nH]c1=O` [Compound 28, 6-[3,5-dichloro-4-[(5-isopropyl-6-oxo-1H-pyridazin-3-yl)oxy]phenyl]-2-(difluoromethyl)-4H-1,2,4-triazine-3,5-dione], the Emax at THR beta was over 75%; in assay [1], 50 to 75%; on THR alpha it was 50 to 75%; in assay [2] it was under 50%. Further, the EC50 at THR beta was in the range of 250 to 1000 nM; in assay [1], 250 to 1000 nM; on THR alpha it was 1000 to 10000 nM; in assay [2] it was 50 to 250 nM.

With `Nc1nn(-c2cc(Cl)c(Oc3cc(C4CCc5ccccc54)c(=O)[nH]n3)c(Cl)c2)c(=O)[nH]c1=O` (stereo not shown) [Compound 156, 6-amino-2-(3,5-dichloro-4-[[5-(2,3-dihydro-1H-inden-1-yl)-6-oxo-1H-pyridazin-3-yl]oxy]phenyl)-4H-1,2,4-triazine-3,5-dione], the Emax was 50 to 75% on THR beta, under 50% in assay [1], under 50% at THR alpha and under 50% in assay [2]. Further, the EC50 on THR beta was 50 to 250 nM; in assay [1], 50 to 250 nM; on THR alpha, 1000 to 10000 nM; in assay [2], under 50 nM.

As for `CC(C)c1c[nH]c2nnc(Oc3c(Cl)cc(-n4nc(N)c(=O)[nH]c4=O)cc3Cl)cc12` [Compound 53, 6-amino-2-[3,5-dichloro-4-([5-isopropyl-7H-pyrrolo[2,3-c]pyridazin-3-yl]oxy)phenyl]-4H-1,2,4-triazine-3,5-dione], the maximal response (Emax) on THR beta was over 75%; in assay [1] it was under 50%; at THR alpha, over 75%; in assay [2], 50 to 75%. Further, the EC50 on THR beta was 250 to 1000 nM; in assay [1] it was 250 to 1000 nM; at THR alpha, 1000 to 10000 nM; in assay [2], under 50 nM.

`Cc1cc2cc(Oc3c(Cl)cc(-n4nc(C#N)c(=O)[nH]c4=O)cc3Cl)ccc2[nH]c1=O` [Compound 154, 2-[3,5-dichloro-4-[(3-methyl-2-oxo-1H-quinolin-6-yl)oxy]phenyl]-3,5-dioxo-1,2,4-triazine-6-carbonitrile]: the concentration giving a half-maximal response (EC50) at THR beta was over 10000 nM; in assay [1], over 25000 nM; in assay [2], 50 to 250 nM. The maximal effect (Emax) (in assay [1]; on THR alpha; in assay [2]) was under 50% in each case.

For the molecule `Cc1cc(-n2nc(C#N)c(=O)[nH]c2=O)cc(C)c1Cc1ccc2[nH]cc(C(C)C)c2c1` [Compound 3, 2-(4-((3-isopropyl-1H-indol-5-yl)methyl)-3,5-dimethylphenyl)-3,5-dioxo-2,3,4,5-tetrahydro-1,2,4-triazine-6-carbo-nitrile], the maximum response (Emax) is over 75% at THR beta, under 50% in assay [1], over 75% at THR alpha and 50 to 75% in assay [2]. Also, the concentration for a half-maximal effect (EC50) on THR beta is 50 to 250 nM; in assay [1], over 25000 nM; at THR alpha it was 250 to 1000 nM; in assay [2], under 50 nM.

Take `Nc1nn(-c2cc(Cl)c(Oc3cc(-c4ccc5ncccc5c4)c(=O)[nH]n3)c(Cl)c2)c(=O)[nH]c1=O` [Compound 128]: the Emax (on THR beta; in assay [1]; on THR alpha; in assay [2]) was under 50% throughout. Moreover, the 50% effective concentration (EC50) was over 10000 nM at THR beta, over 25000 nM in assay [1], over 10000 nM at THR alpha and over 25000 nM in assay [2].

Turning to `CC(C)c1cc(Cc2c(Cl)cc(-n3nc(N)c(=O)[nH]c3=O)cc2Cl)n[nH]c1=O` [Compound 36, 6-Amino-2-[3,5-dichloro-4-[(5-isopropyl-6-oxo-1H-pyridazin-3-yl)methyl]-phenyl]-4H-1,2,4-triazine-3,5-dione], the maximum response (Emax) is 50 to 75% on THR beta, 50 to 75% in assay [1], under 50% at THR alpha and 50 to 75% in assay [2]. Moreover, the EC50 at THR beta is under 50 nM; in assay [1], 50 to 250 nM; at THR alpha it was under 50 nM; in assay [2], under 50 nM.

As for `Cc1cc(-n2nc(N)c(=O)[nH]c2=O)cc(Cl)c1Oc1cc(C(C)C)c(=O)[nH]n1` [Compound 37, 6-Amino-2-[3-chloro-4-[(5-isopropyl-6-oxo-1H-pyridazin-3-yl)oxy]-5-methyl-phenyl]-4H-1,2,4-triazine-3,5-dione], the Emax was over 75% at THR beta, 50 to 75% in assay [1], 50 to 75% on THR alpha and 50 to 75% in assay [2]. Besides, the EC50 was 50 to 250 nM at THR beta, 250 to 1000 nM in assay [1], 50 to 250 nM on THR alpha and 50 to 250 nM in assay [2].

As to `Nc1nn(-c2cc(Cl)c(Oc3cc(C4CCOCC4)c(=O)[nH]n3)c(Cl)c2)c(=O)[nH]c1=O` [Compound 59, 6-amino-2-(3,5-dichloro-4-[[5-(oxan-4-yl)-6-oxo-1H-pyridazin-3-yl]oxy]phenyl)-4H-1,2,4-triazine-3,5-dione], the Emax is over 75% at THR beta, under 50% in assay [1], 50 to 75% at THR alpha and under 50% in assay [2]. Also, the half-maximal effective concentration (EC50) was 1000 to 10000 nM at THR beta, 1000 to 25000 nM in assay [1], over 10000 nM on THR alpha and 1000 to 25000 nM in assay [2].

Take `CCc1cccc(-c2cc(Oc3c(Cl)cc(-n4nc(N)c(=O)[nH]c4=O)cc3Cl)n[nH]c2=O)c1` [Compound 71, 6-Amino-2-(3,5-dichloro-4-((5-(3-ethylphenyl)-6-oxo-1,6-dihydro-pyridazin-3-yl)oxy)phenyl)-1,2,4-triazine-3,5(2H,4H)-dione]: the Emax at THR beta is over 75%; in assay [1] it was under 50%; at THR alpha it was 50 to 75%; in assay [2] it was under 50%. In addition, the half-maximal effective concentration (EC50) is under 50 nM on THR beta, 50 to 250 nM in assay [1], 50 to 250 nM at THR alpha and under 50 nM in assay [2].

For `Nc1nn(-c2cc(Cl)c(Oc3ccc4c(c3)C3(CCCCC3)C(=O)N4)c(Cl)c2)c(=O)[nH]c1=O` [Compound 85], the Emax at THR beta was over 75%; in assay [1] it was under 50%; on THR alpha it was 50 to 75%; in assay [2], under 50%. Besides, the EC50 (in assay [1]; on THR alpha; in assay [2]) was under 50 nM throughout.
